# ChEMBL document CHEMBL1201862, “PubChem BioAssay data set” (2004)
#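 Growth conditions: 96-well plates. Treatment: test compound, 48 hours, 5 concentrations. Analysis: linear interpolation between bracketing concentrations; unreached endpoints set to highest concentration. At the GI50, growth is halved.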 The source made the active and inactive calls. Rule as the data show it: active = GI50 up to about 1.1 µM and inactive = higher.
# Tests used:
# Experiment in all cases: growth of human tumour cells (NCI), 48 h
# NCI-H23 = tested on: NCI-H23
# ACHN = tested on: ACHN
# IGROV-1 = tested on: IGROV-1
# SK-MEL-2 = tested on: SK-MEL-2
# MDA-MB-231 = tested on: MDA-MB-231
# K562 = tested on: K562
# 786-0 = tested on: 786-0
# HT-29 = tested on: HT-29
# PC-3 = tested on: PC-3
# OVCAR-3 = tested on: OVCAR-3
# NCI/ADR-RES = tested on: NCI/ADR-RES
# RPMI-8226 = tested on: RPMI-8226
# TK-10 = tested on: TK-10
# RXF 393 = tested on: RXF 393
# A498 = tested on: A498
# CAKI-1 = tested on: CAKI-1
# MOLT-4 = tested on: MOLT-4
# SR = tested on: SR
# LOX IMVI = tested on: LOX IMVI
# SF-539 = tested on: SF-539
# MCF7 = tested on: MCF7
# MDA-MB-435 = tested on: MDA-MB-435
# COLO 205 = tested on: COLO 205
# NCI-H226 = tested on: NCI-H226
# Malme-3M = tested on: Malme-3M
# NCI-H522 = tested on: NCI-H522
# UO-31 = tested on: UO-31
# EKVX = tested on: EKVX
# CCRF-CEM = tested on: CCRF-CEM
# A549 = tested on: A549
# SW-620 = tested on: SW-620
# U-251 = tested on: U-251
# SK-MEL-5 = tested on: SK-MEL-5
# Hs-578T = tested on: Hs-578T
# OVCAR-4 = tested on: OVCAR-4
# BT-549 = tested on: BT-549
# OVCAR-5 = tested on: OVCAR-5
# UACC-62 = tested on: UACC-62
# HOP-62 = tested on: HOP-62
# SF-295 = tested on: SF-295
# HCT-116 = tested on: HCT-116
# NCI-H460 = tested on: NCI-H460
# HCC 2998 = tested on: HCC 2998
# SK-MEL-28 = tested on: SK-MEL-28
# DU-145 = tested on: DU-145
# MDA-N = tested on: MDA-N
# OVCAR-8 = tested on: OVCAR-8
# KM12 = tested on: KM12
# HL-60 = tested on: HL-60
# UACC-257 = tested on: UACC-257
# SF-268 = tested on: SF-268
# HCT-15 = tested on: HCT-15
# SN12C = tested on: SN12C
structure (smiles),measurement,setting,value
Cc1n[nH]c(=O)n1/N=C\c1ccccc1,GI50,NCI-H23,> 100 µM (inactive)
same,GI50,ACHN,> 100 µM (inactive)
same,GI50,IGROV-1,> 100 µM (inactive)
same,GI50,SK-MEL-2,83.9 µM (inactive)
same,GI50,MDA-MB-231,> 100 µM (inactive)
same,GI50,K562,> 100 µM (inactive)
same,GI50,786-0,> 100 µM (inactive)
same,GI50,HT-29,> 100 µM (inactive)
same,GI50,PC-3,> 100 µM (inactive)
same,GI50,OVCAR-3,> 100 µM (inactive)
same,GI50,NCI/ADR-RES,> 100 µM (inactive)
same,GI50,RPMI-8226,> 100 µM (inactive)
same,GI50,TK-10,> 100 µM (inactive)
same,GI50,RXF 393,< 0.01 µM (active)
same,GI50,A498,> 100 µM (inactive)
same,GI50,CAKI-1,> 100 µM (inactive)
same,GI50,MOLT-4,> 100 µM (inactive)
same,GI50,SR,> 100 µM (inactive)
same,GI50,LOX IMVI,> 100 µM (inactive)
same,GI50,SF-539,> 100 µM (inactive)
same,GI50,MCF7,> 100 µM (inactive)
same,GI50,MDA-MB-435,> 100 µM (inactive)
same,GI50,COLO 205,> 100 µM (inactive)
same,GI50,NCI-H226,> 100 µM (inactive)
same,GI50,Malme-3M,> 100 µM (inactive)
same,GI50,NCI-H522,> 100 µM (inactive)
same,GI50,UO-31,> 100 µM (inactive)
same,GI50,EKVX,> 100 µM (inactive)
same,GI50,CCRF-CEM,> 100 µM (inactive)
same,GI50,A549,> 100 µM (inactive)
same,GI50,SW-620,> 100 µM (inactive)
same,GI50,U-251,> 100 µM (inactive)
same,GI50,SK-MEL-5,> 100 µM (inactive)
same,GI50,Hs-578T,> 100 µM (inactive)
same,GI50,OVCAR-4,> 100 µM (inactive)
same,GI50,BT-549,> 100 µM (inactive)
same,GI50,OVCAR-5,> 100 µM (inactive)
same,GI50,UACC-62,> 100 µM (inactive)
same,GI50,HOP-62,> 100 µM (inactive)
same,GI50,SF-295,59.2 µM (inactive)
same,GI50,HCT-116,> 100 µM (inactive)
same,GI50,NCI-H460,> 100 µM (inactive)
same,GI50,HCC 2998,> 100 µM (inactive)
same,GI50,SK-MEL-28,> 100 µM (inactive)
same,GI50,DU-145,> 100 µM (inactive)
same,GI50,MDA-N,> 100 µM (inactive)
same,GI50,OVCAR-8,> 100 µM (inactive)
same,GI50,KM12,> 100 µM (inactive)
same,GI50,HL-60,> 100 µM (inactive)
same,GI50,UACC-257,> 100 µM (inactive)
same,GI50,SF-268,0.0855 µM (active)
same,GI50,HCT-15,> 100 µM
same,GI50,SN12C,> 100 µM (inactive)
